Laboratory results from US20150118179A1, “BIOCIDAL COMPOUNDS AND METHODS FOR USING SAME” (UNIVERSITY OF MANITOBA, priority 2012, published 2015).
Where two headings read alike, the source gives them in different places.

Columns and labels:
[1] = system: P. aeruginosa (73104); assay: Antibacterial assessment in PBS suspension (Example 19); format: cell-based, Pseudomonas aeruginosa; conditions: inoculum 10^5 cfu/ml; for Bacteria Reduction log10 / Bacteria reduction %: [Cl+] 15 ppm
Procedure: (§1) Pseudomonas aeruginosa (P. aeruginosa) (#73104, Gram-negative) and Staphylococcus aureus (MRSA) (#40065, Gram-positive) were used as the model microorganism to challenge the antibacterial function of the compounds. It should be noticed that both P. aeruginosa and MRSA are biosafety level 2 microorganisms and potentially biohazardous, therefore the following antibacterial assessments were carried out in a Biological Safety Level 2 cabinet and safety precautions were strictly followed.
(§2) Tryptone Soya agar plates were used as platforms for bacterial cell growth and were prepared following the instructions on the bottle (CM 0131, OXOID). The prepared agar was kept at 65° C. after being autoclaved and the resulting agar plates were stored in fridge at 3-4° C. All glassware and related materials were subjected to autoclave or disinfection with 70% ethanol prior to use.
(§3) Several colonies of each bacteria type were suspended in broth solutions (cation-supplemented Mueller-Hinton broth for P. aeruginosa and tryptic soy broth for MRSA) whose concentrations were equivalent to a 0.5 McFarland standard (1×10^8 cfu/ml). This suspension was then diluted 1:100 and 20 μL of the diluted suspension was further diluted in 60 ml of cation-supplemented Mueller-Hinton broth or tryptic soy broth. Then the prepared bacteria inoculums were incubated overnight at 37° C. to obtain logarithmic-phase cultures. For each microbial study, 0.2 ml (0.02 ml for P. aeruginosa) of the cell suspension was diluted in 19.8 mL (19.98 ml for P. aeruginosa) of phosphate-buffered Saline (PBS, 0.1 M Sodium phosphate monobasic, 0.1 M Sodium phosphate dibasic, pH 7.4) to give a cell concentration of 10^6-10^7 cfu/mL (10^5 cfu/ml for P. aeruginosa). 30 μL of each synthesized compound solution (0.28 N stock solution) were added into the cell suspension to achieve a [Cl^+] of 15 ppm and start timing instantly. The mixture was vortexed several times during the reaction. After contact for the desired time intervals, 1.0 ml cell suspension was withdrawn and added to 1.0 ml of 0.02 N sodium thiosulfate and/or Letheen (1% lecithin, 10% peptone and 0.5% tween 80 dissolved in PBS at pH 7.4) to quench the bactericidal effect. The quenched suspension was then serially diluted (10 times less concentrated than the previous one) and 100 μL of each dilution was placed onto agar plates. The same procedure was applied to the blanks as controls with the same matrices but with no synthesized compounds added. Bacterial colonies on the agar plates were enumerated after being incubated at 37° C. for 22 hours.
(§4) Percentage reduction of bacteria (%)=(A−B)/A×100
(§5) Where A is the number of bacterial colonies in the control (cfu/mL), and B is the number of bacteria colonies under the effect of the synthesized compounds.

[2] = system: methicillin resistant Staphylococcus aureus (MRSA 40065); format: cell-based; conditions: inoculum 10^6 cfu/ml; for Bacteria Reduction log10 / Bacteria reduction %: [Cl+] 15 ppm
Procedure: as §1, §2, §3, §4, §5

Row | Structure (SMILES) | Bacteria Reduction log10 ([1]; Table 10, contact 3 min) | Bacteria reduction % ([1]; Table 10, contact 3 min) | Bacteria Reduction log10 ([1]; Table 10, contact 10 min) | Bacteria reduction % ([1]; Table 10, contact 10 min) | Bacteria Reduction log10 ([1]; Table 10, contact 20 min) | Bacteria reduction % ([1]; Table 10, contact 20 min) | Bacteria Reduction log10 ([1]; Table 10, contact 30 min) | Bacteria reduction % ([1]; Table 10, contact 30 min) | Bacteria Reduction log10 ([1]; Table 10, contact 60 min) | Bacteria reduction % ([1]; Table 10, contact 60 min) | Bacteria Reduction log10 ([2]; Table 10, contact 1 min) | Bacteria reduction % ([2]; Table 10, contact 1 min) | Bacteria Reduction log10 ([2]; Table 10, contact 3 min) | Bacteria reduction % ([2]; Table 10, contact 3 min) | Bacteria Reduction log10 ([2]; Table 10, contact 5 min) | Bacteria reduction % ([2]; Table 10, contact 5 min) | Bacteria Reduction log10 ([2]; Table 10, contact 10 min) | Bacteria reduction % ([2]; Table 10, contact 10 min) | Bacteria Reduction log10 ([2]; Table 10, contact 60 min) | Bacteria reduction % ([2]; Table 10, contact 60 min) | further results
1 | CCCCCC[N+](C)(C)CCCN1C(=O)NC(C)(C)C1=O [Compound 5] |  |  |  |  |  |  |  |  |  |  |  |  |  |  |  |  |  |  |  |  | Bactericidal effect (bacteria reduction at various contact time) ([1]; Table 10, contact 3-60 min): No bactericidal effect; Bactericidal effect (bacteria reduction at various contact time) ([2]; Table 10, contact 1-60 min): No bactericidal effect
2 | CCCCCC[N+](C)(C)CCCN1C(=O)N(Cl)C(C)(C)C1=O.[Cl-] [Compound 6] | 0.24 log10 | 42.7% | 0.30 log10 | 49.3% | 0.50 log10 | 68.6% | 1.52 log10 | 97.0% | 5.80 log10 | 100% | 0.66 log10 | 78.3% | 0.67 log10 | 78.9% | 0.76 log10 | 82.8% | 1.00 log10 | 89.3% | 2.11 log10 | 99.2% | 
3 | CCCCCCCCCCCC[N+](C)(C)CCCN1C(=O)NC(C)(C)C1=O [Compound 7] | 5.80 log10 | 100% | 5.80 log10 | 100% | 5.80 log10 | 100% | 5.80 log10 | 100% | 5.80 log10 | 100% | 0 log10 | 0% | 0 log10 | 0% | 0.85 log10 | 85.6. % | 2.59 log10 | 99.7% | 6.26 log10 | 100% | 
4 | CCCCCCCCCCCC[N+](C)(C)CCCN1C(=O)N(Cl)C(C)(C)C1=O.[Cl-] [Compound 8] | 5.80 log10 | 100% | 5.80 log10 | 100% | 5.80 log10 | 100% | 5.80 log10 | 21.4% | 5.80 log10 | 100% | 0.13 log10 | 26.1% | 6.26 log10 | 100% | 6.26 log10 | 100% | 6.26 log10 | 100% | 6.26 log10 | 100% | 
5 | CC1(C)C(=O)N(CC[N+](C)(C)C)C(=O)N1Cl.[Cl-] [Compound 10] |  |  | 0.35 log10 | 55.1% | 5.27 log10 | 100% | 5.27 log10 | 100% | 5.27 log10 | 100% | 0.74 log10 | 81.7% | 0.63 log10 | 76.7% | 0.50 log10 | 68.2% | 0.81 log10 | 84.5% | 1.33 log10 | 95.3% | 
